Laboratory results: paper PMC5053523, “In Vitro Antibacterial Activity of Rhodanine Derivatives against Pathogenic Clinical Isolates” (PLoS ONE, 2016)
Converted amounts (≈) assume the structure as drawn. Where two headings read alike, the source gives them in different places.

Columns and labels:
Assay type in all cases: cell-based
[1] = test system: vancomycin resistant enterococci (VRE); assay: Broth microdilution MIC50/MIC90, VRE panel; conditions: Enterococcus, 10 VRE strains
[2] = test system: methicillin-resistant Staphylococcus aureus (MRSA); assay: Broth microdilution MIC/MBC, MRSA
[3] = test system: Vancomycin Resistant Staphylococcus aureus (VRSA); assay: Broth microdilution MIC/MBC, VRSA; conditions: for MBC / MIC: VRSA
Bacillus anthracis = assay: microbe, parasite or virus in culture
B. licheniformis = assay: Broth microdilution MIC/MBC, B. licheniformis; conditions: Bacillus licheniformis; for MBC: read-out: MBC; for MIC: read-out: MIC
Clostridium difficile = assay: MIC against Clostridium difficile, anaerobic broth dilution; conditions: Clostridioides difficile
How it was run: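 Clinical C. difficile isolates grown anaerobically 48 h at 37 °C, suspended to 0.5 McFarland and diluted 1:300 in pre-reduced supplemented Brain Heart Infusion broth. Compounds serially diluted; plates incubated anaerobically at 37 °C for 48 h. MIC = lowest concentration with no visible growth.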

Mycobacterium smegmatis = assay: Broth microdilution MIC/MBC, Mycobacterium smegmatis; conditions: Mycolicibacterium smegmatis, ATCC14468, M. Smegmatis ATCC 14468
Candida albicans = assay: MIC against Candida albicans; conditions: table prints none, read-out: MIC
Acinetobacter baumannii = assay: MIC with/without sub-MIC colistin, Acinetobacter baumannii
How it was run: (§1)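 Gram-negative MICs were determined for rhodanines alongside control antibiotics, each combined with sub-inhibitory colistin or PMBN. Further testing used the efflux-deficient E. coli SM1411ΔacrAB, missing the AcrAB multidrug pump.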

Klebsiella pneumoniae = assay: MIC with/without PMBN, Klebsiella pneumoniae
How it was run: as §1

[4] = NCIB9375, B. licheniformis Gibson 46 (NCIB 9375) NR-2494
[5] = NRS712, B. licheniformis NRS 712 NR-2499

O=C(O)[C@H](Cc1ccccc1)N1C(=O)/C(=C/c2cccc(-c3ccccc3)c2)SC1=S [Rh 5]
MIC90 ([1]; VRE, read-out: MIC 90): 16 µM (≈ 7.13 µg/mL)
MIC50 ([1]; read-out: MIC 50): 16 µM (≈ 7.13 µg/mL)
MIC50 ([2]; 11 MRSA strains): 8 µM (≈ 3.56 µg/mL)
MIC90 ([2]; 11 MRSA strains): 16 µM (≈ 7.13 µg/mL)
MBC ([2]; MRSA NRS 1): 16 µM (≈ 7.13 µg/mL)
MIC ([2]; MRSA NRS 1): 8 µM (≈ 3.56 µg/mL)
MBC ([2]; MRSA NRS 19): 16 µM (≈ 7.13 µg/mL)
MIC ([2]; MRSA NRS 19): 8 µM (≈ 3.56 µg/mL)
MBC ([2]; MRSA NRS 37): 16 µM (≈ 7.13 µg/mL)
MIC ([2]; MRSA NRS 37): 16 µM (≈ 7.13 µg/mL)
MBC ([2]; MRSA NRS 107): 16 µM (≈ 7.13 µg/mL)
MIC ([2]; MRSA NRS 107): 16 µM (≈ 7.13 µg/mL)
MBC ([2]; MRSA NRS 119): 8 µM (≈ 3.56 µg/mL)
MIC ([2]; MRSA NRS 119): 8 µM (≈ 3.56 µg/mL)
MBC ([2]; MRSA NRS 382): 8 µM (≈ 3.56 µg/mL)
MIC ([2]; MRSA NRS 382): 8 µM (≈ 3.56 µg/mL)
MBC ([2]; MRSA NRS 383): 16 µM (≈ 7.13 µg/mL)
MIC ([2]; MRSA NRS 383): 16 µM (≈ 7.13 µg/mL)
MBC ([2]; MRSA NRS 384): 64 µM (≈ 28.5 µg/mL)
MIC ([2]; MRSA NRS 384): 8 µM (≈ 3.56 µg/mL)
MBC ([2]; MRSA NRS 385): 16 µM (≈ 7.13 µg/mL)
MIC ([2]; MRSA NRS 385): 8 µM (≈ 3.56 µg/mL)
MBC ([2]; MRSA NRS 386): 64 µM (≈ 28.5 µg/mL)
MIC ([2]; MRSA NRS 386): 8 µM (≈ 3.56 µg/mL)
MBC ([2]; MRSA NRS 387): 8 µM (≈ 3.56 µg/mL)
MIC ([2]; MRSA NRS 387): 8 µM (≈ 3.56 µg/mL)
MIC50 ([3]; 15 VRSA strains, read-out: MIC 50): 8 µM (≈ 3.56 µg/mL)
MIC90 ([3]; 15 VRSA strains, read-out: MIC 90): 8 µM (≈ 3.56 µg/mL)
MBC ([3]; VRSA 1, read-out: MBC): 16 µM (≈ 7.13 µg/mL)
MIC ([3]; VRSA 1, read-out: MIC): 8 µM (≈ 3.56 µg/mL)
MBC ([3]; VRSA 2, read-out: MBC): 8 µM (≈ 3.56 µg/mL)
MIC ([3]; VRSA 2, read-out: MIC): 8 µM (≈ 3.56 µg/mL)
MBC ([3]; VRSA 3a, read-out: MBC): 16 µM (≈ 7.13 µg/mL)
MIC ([3]; VRSA 3a, read-out: MIC): 8 µM (≈ 3.56 µg/mL)
MBC ([3]; VRSA 3b, read-out: MBC): 16 µM (≈ 7.13 µg/mL)
MIC ([3]; VRSA 3b, read-out: MIC): 8 µM (≈ 3.56 µg/mL)
MBC ([3]; VRSA 4, read-out: MBC): 16 µM (≈ 7.13 µg/mL)
MIC ([3]; VRSA 4, read-out: MIC): 8 µM (≈ 3.56 µg/mL)
MBC ([3]; VRSA 5, read-out: MBC): 16 µM (≈ 7.13 µg/mL)
MIC ([3]; VRSA 5, read-out: MIC): 8 µM (≈ 3.56 µg/mL)
MBC ([3]; VRSA 6, read-out: MBC): 16 µM (≈ 7.13 µg/mL)
MIC ([3]; VRSA 6, read-out: MIC): 8 µM (≈ 3.56 µg/mL)
MBC ([3]; VRSA 7, read-out: MBC): 32 µM (≈ 14.3 µg/mL)
MIC ([3]; VRSA 7, read-out: MIC): 8 µM (≈ 3.56 µg/mL)
MBC ([3]; VRSA 8, read-out: MBC): 16 µM (≈ 7.13 µg/mL)
MIC ([3]; VRSA 8, read-out: MIC): 8 µM (≈ 3.56 µg/mL)
MBC ([3]; VRSA 9, read-out: MBC): 16 µM (≈ 7.13 µg/mL)
MIC ([3]; VRSA 9, read-out: MIC): 16 µM (≈ 7.13 µg/mL)
MBC ([3]; VRSA 10, read-out: MBC): 16 µM (≈ 7.13 µg/mL)
MIC ([3]; VRSA 10, read-out: MIC): 8 µM (≈ 3.56 µg/mL)
MBC ([3]; VRSA 11a, read-out: MBC): 16 µM (≈ 7.13 µg/mL)
MIC ([3]; VRSA 11a, read-out: MIC): 8 µM (≈ 3.56 µg/mL)
MBC ([3]; VRSA 11b, read-out: MBC): 16 µM (≈ 7.13 µg/mL)
MIC ([3]; VRSA 11b, read-out: MIC): 8 µM (≈ 3.56 µg/mL)
MBC ([3]; VRSA 12, read-out: MBC): 16 µM (≈ 7.13 µg/mL)
MIC ([3]; VRSA 12, read-out: MIC): 8 µM (≈ 3.56 µg/mL)
MBC ([3]; VRSA 13, read-out: MBC): 16 µM (≈ 7.13 µg/mL)
MIC ([3]; VRSA 13, read-out: MIC): 8 µM (≈ 3.56 µg/mL)
MBC (Bacillus anthracis; Bacillus anthracis AMES35): 2 µM (≈ 0.891 µg/mL)
MIC (Bacillus anthracis; Bacillus anthracis AMES35): 2 µM (≈ 0.891 µg/mL)
MBC (Bacillus anthracis; Bacillus anthracis UM23): 2 µM (≈ 0.891 µg/mL)
MIC (Bacillus anthracis; Bacillus anthracis UM23): 2 µM (≈ 0.891 µg/mL)
MBC (Bacillus anthracis; Bacillus anthracis Weybridge): 4 µM (≈ 1.78 µg/mL)
MIC (Bacillus anthracis; Bacillus anthracis Weybridge): 2 µM (≈ 0.891 µg/mL)
MBC (B. licheniformis; [4]): 8 µM (≈ 3.56 µg/mL)
MIC (B. licheniformis; [4]): 8 µM (≈ 3.56 µg/mL)
MBC (B. licheniformis; [5]): 8 µM (≈ 3.56 µg/mL)
MIC (B. licheniformis; [5]): 8 µM (≈ 3.56 µg/mL)
MIC (Clostridium difficile; C. difficile HM-88): 4 µM (≈ 1.78 µg/mL)
MIC (Clostridium difficile; C. difficile HM-745): 4 µM (≈ 1.78 µg/mL)
MIC (Clostridium difficile; C. difficile HM-746): 2 µM (≈ 0.891 µg/mL)
MIC (Clostridium difficile; C. difficile Isolate-1 NR-13427): 4 µM (≈ 1.78 µg/mL)
MIC (Clostridium difficile; C. difficile Toxigenic Strain P8 NR-32888): 4 µM (≈ 1.78 µg/mL)
MBC (Mycobacterium smegmatis; read-out: MBC): 16 µM (≈ 7.13 µg/mL)
MIC (Mycobacterium smegmatis; read-out: MIC): 16 µM (≈ 7.13 µg/mL)
MIC (Candida albicans; ATCC10231, C. albicans ATCC 10231, unit from abstract): > 64 µM
MIC (Candida albicans; C. albicans NR 29434, unit from abstract): > 64 µM
MIC (Candida albicans; C. albicans NR 29435, unit from abstract): > 64 µM
MIC (Candida albicans; C. albicans NR29437, unit from abstract): > 64 µM
MIC (Candida albicans; C. albicans NR29438, unit from abstract): > 64 µM
MIC (Candida albicans; C. albicans NR 29446, unit from abstract): > 64 µM
MIC (Candida albicans; C. albicans NR 29448, unit from abstract): > 64 µM
MIC (Candida albicans; C. albicans NR 29449, unit from abstract): > 64 µM
MIC (Candida albicans; C. albicans NR 29453, unit from abstract): > 64 µM
MIC (Candida albicans; C. albicans NR 294436, unit from abstract): > 64 µM
MIC (Acinetobacter baumannii; Acinetobacter baumannii ATCC BAA747, colistin (+) […], read-out: MIC): >64 µM
MIC (Acinetobacter baumannii; Acinetobacter baumannii ATCC BAA19606, colistin (+) […], read-out: MIC): >64 µM
MIC (Acinetobacter baumannii; Acinetobacter baumannii, ATCCBAA747): > 128 µM
MIC (Acinetobacter baumannii; Acinetobacter baumannii, ATCCBAA19606): > 128 µM
MIC (Klebsiella pneumoniae; Klebsiella pneumoniae ATCC BAA 1706, PMBN (+) 4 μg/mL): >64 µM
MIC (Klebsiella pneumoniae; Klebsiella pneumoniae ATCC BAA 2146, PMBN (+) 4 μg/mL): >64 µM
MIC (Klebsiella pneumoniae; Klebsiella pneumoniae, BAA1706): > 128 µM
MIC (Klebsiella pneumoniae; Klebsiella pneumoniae, BAA2146): > 128 µM
